Results published in ChEMBL document CHEMBL1201862, “PubChem BioAssay data set” (2004).
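Exposure lasted 48 hours, with cells grown in 96-well plates and compounds tested at five concentrations. GI50 = concentration required for 50% inhibition of growth.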 The source made the active and inactive calls. Rule as the data show it: active = GI50 up to about 1.1 µM and inactive = higher. Where a SMILES comes first, the peptide text is derived from it. [ ]: non-standard residue; d: D form. The star is where a group is joined. Octanoyl = CCCCCCCC(=O)*; Aib = CC(C)(N)C(=O)O; tBu = CC(C)(C)*

Legend:
Assay in all cases: NCI tumour cell line growth inhibition, 48 h
HCT-116 = tested on: HCT-116
TK-10 = tested on: TK-10
IGROV-1 = tested on: IGROV-1
SK-MEL-28 = tested on: SK-MEL-28
T47D = tested on: T47D
MDA-N = tested on: MDA-N
CCRF-CEM = tested on: CCRF-CEM
SR = tested on: SR
SF-268 = tested on: SF-268
NCI-H226 = tested on: NCI-H226
SF-539 = tested on: SF-539
NCI-H460 = tested on: NCI-H460
LOX IMVI = tested on: LOX IMVI
OVCAR-4 = tested on: OVCAR-4
OVCAR-5 = tested on: OVCAR-5
KM12 = tested on: KM12
NCI-H23 = tested on: NCI-H23
SN12C = tested on: SN12C
EKVX = tested on: EKVX
NCI-H522 = tested on: NCI-H522

Structure (SMILES)	GI50 (HCT-116)	GI50 (TK-10)	GI50 (IGROV-1)	GI50 (SK-MEL-28)	GI50 (T47D)	GI50 (MDA-N)	GI50 (CCRF-CEM)	GI50 (SR)	GI50 (SF-268)	GI50 (NCI-H226)	GI50 (SF-539)	GI50 (NCI-H460)	GI50 (LOX IMVI)	GI50 (OVCAR-4)	GI50 (OVCAR-5)	GI50 (KM12)	GI50 (NCI-H23)	GI50 (SN12C)	GI50 (EKVX)	GI50 (NCI-H522)
CC(=O)OC(C)c1cc2c(s1)C(=O)c1scc(C(C)OC(C)=O)c1C2=O (stereo not given)	285 nM (active)	0.571 µM (active)	662 nM (active)	226 nM (active)	661 nM (active)	81.7 nM (active)	367 nM (active)	210 nM (active)	211 nM (active)	2.24 µM (inactive)	175 nM (active)	167 nM (active)	118 nM (active)	0.298 µM (active)	0.57 µM (active)	195 nM (active)	157 nM (active)	288 nM (active)	847 nM (active)	0.215 µM (active)
COc1cccc2c1C(=O)c1c(O)c3c(c(O)c1C2=O)C[C@@](O)(C(C)=O)C[C@@H]3OC1OC(C)C(O)C(N)C1Br (stereo not given in full)	7.92 nM (active)	0.158 µM (active)	266 nM (active)	318 nM (active)	58.5 nM (active)	208 nM (active)	4.14 nM (active)	4.97 nM (active)	101 nM (active)	0.0165 µM (active)	58.3 nM (active)	1 nM (active)	20.8 nM (active)	0.185 µM (active)	0.28 µM (active)	140 nM (active)	27 nM (active)	28.1 nM (active)	805 nM (active)	0.0652 µM (active)
CCCCCCCC(=O)NC(C)(C)C(=O)NC(COC(C)(C)C)C(=O)NC(CC(C)C)C(=O)NC(C)(C)C(=O)NC(COC(C)(C)C)C(=O)NC(COC(C)(C)C)C(=O)NC(CC(C)C)C(=O)NC(C)(C)C(=O)NC(COC(C)(C)C)C(=O)NC(C(=O)NC(CC(C)C)C(=O)OC)C(C)CC (stereo not given) (Octanoyl-[Aib]S(tBu)L[Aib]S(tBu)S(tBu)L[Aib]S(tBu)IL-OMe; configuration not given here)	7180 nM (inactive)	7.14 µM (inactive)	5700 nM (inactive)	14400 nM (inactive)	6380 nM (inactive)	8650 nM (inactive)	4790 nM (inactive)	5620 nM (inactive)	9950 nM (inactive)	7.33 µM (inactive)	8490 nM (inactive)	5640 nM (inactive)	5610 nM (inactive)	8.63 µM (inactive)	6.5 µM (inactive)	6670 nM (inactive)	4700 nM (inactive)	7570 nM (inactive)	6220 nM (inactive)	6.41 µM (inactive)
CCCCCCC(O)C(O)CCC(O)C1CCC(CCCCC(O)CC2=CC(C)OC2=O)O1 (stereo not given) [ACETOGENINS]	2800 nM (inactive)	8.09 µM (inactive)	2950 nM (inactive)	4660 nM (inactive)	3130 nM (inactive)	2320 nM (inactive)	3580 nM (inactive)	1690 nM (inactive)	2060 nM (inactive)	1.74 µM (inactive)	4290 nM (inactive)	2590 nM (inactive)	1390 nM (inactive)	17.5 µM (inactive)	8.3 µM (inactive)	2150 nM (inactive)	161 nM (active)	3080 nM (inactive)	1920 nM (inactive)	7.71 µM (inactive)
